pKi: −log10 of the molar value. “And” between values parts separate entries of the source, which are not always exact repeats. Equal values may be shown once.
What was measured:
[1] = target: T1, rat adrenergic α1B receptor (Rattus norvegicus, UniProt P15823); assay: Radioligand binding, adrenergic α1B ([3H]Prazosin); settings: [3H]Prazosin, repeat assays, each datapoint shown; for Percentage inhibition of ligand binding, Adrenergic α1B / inhibition at 0.1 µM: compound at 0.1 μM; for Percentage inhibition of ligand binding, Adrenergic α1B: 0.1 µM; for inhibition at 0.03 µM: compound at 0.03 μM; for inhibition at 0.03 µM / inhibition at 0.1 µM: read-out: Percentage inhibition of ligand binding, Adrenergic α1B
T1 construct: rat adrenergic α1B receptor obtained from Wistar Rat liver; from tissue; host or cells: Wistar rat liver
T1 sequence (P15823 1-515): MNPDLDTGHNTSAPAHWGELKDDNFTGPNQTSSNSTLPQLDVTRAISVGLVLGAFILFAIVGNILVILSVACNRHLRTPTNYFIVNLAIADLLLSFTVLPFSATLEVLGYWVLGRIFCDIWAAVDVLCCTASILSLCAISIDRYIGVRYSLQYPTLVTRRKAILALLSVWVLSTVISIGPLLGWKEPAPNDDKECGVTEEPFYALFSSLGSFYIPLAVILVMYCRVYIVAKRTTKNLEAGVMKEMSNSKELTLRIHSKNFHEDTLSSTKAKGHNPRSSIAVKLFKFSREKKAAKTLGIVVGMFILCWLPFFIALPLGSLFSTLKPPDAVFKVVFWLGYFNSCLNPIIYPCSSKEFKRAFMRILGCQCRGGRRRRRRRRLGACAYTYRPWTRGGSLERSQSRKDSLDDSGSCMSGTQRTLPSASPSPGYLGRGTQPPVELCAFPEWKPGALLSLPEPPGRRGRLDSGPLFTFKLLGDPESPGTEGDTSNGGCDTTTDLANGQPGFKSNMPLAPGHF
Procedure, shortened: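 Incubation ran 60 min at 25 °C in Tris-HCl buffer (50 mM, pH 7.4, 0.5 mM EDTA) with Wistar rat liver α1B receptor. 10 μM phentolamine set non-specific binding.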

[2] = target: T2, human recombinant adrenergic α2B receptor (Homo sapiens, UniProt P18089); assay: Radioligand binding, adrenergic α2B ([3H]Rauwolscine); settings: for Percentage inhibition of ligand binding, Adrenergic α2B / inhibition at 0.03 µM: [3H]Rauwolscine, repeat assays, each datapoint shown; for pKi: read-out: Ki α2B; for inhibition at 0.03 µM: read-out: Percentage inhibition of ligand binding, Adrenergic α2B
T2 construct: expressed in transfected cells; host or cells: CHO-K1
T2 sequence (P18089 1-450): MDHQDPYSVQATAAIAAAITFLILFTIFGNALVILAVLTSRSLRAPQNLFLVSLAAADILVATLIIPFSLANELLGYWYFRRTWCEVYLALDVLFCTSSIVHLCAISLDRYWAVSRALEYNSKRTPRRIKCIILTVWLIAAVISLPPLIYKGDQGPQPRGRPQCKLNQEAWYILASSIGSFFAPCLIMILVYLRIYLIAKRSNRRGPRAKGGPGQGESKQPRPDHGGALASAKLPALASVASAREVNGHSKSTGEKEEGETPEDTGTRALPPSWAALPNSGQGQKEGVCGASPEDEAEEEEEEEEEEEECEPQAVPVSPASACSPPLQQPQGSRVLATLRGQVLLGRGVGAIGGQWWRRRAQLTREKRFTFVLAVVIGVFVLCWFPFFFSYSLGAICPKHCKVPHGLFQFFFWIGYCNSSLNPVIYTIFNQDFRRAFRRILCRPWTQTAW
Procedure, shortened: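 Values are percent inhibition of specific radioligand binding. The receptor, expressed in CHO-K1 cells, was exposed to 2.5 nM [3H]Rauwolscine at 25° C for 60 min, with 10 μM Prazosin marking non-specific binding.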

[3] = target: T3, human recombinant adrenergic α2A receptor (Homo sapiens, UniProt P08913); assay: Radioligand binding, adrenergic α2A ([3H]MK-912); settings: for inhibition at 0.1 µM / Percentage inhibition of ligand binding, Adrenergic α2A: compound at 0.1 μM; for inhibition at 0.1 µM / Percentage inhibition of ligand binding, Adrenergic α2A / inhibition at 0.03 µM: [3H]MK-912, repeat assays, each datapoint shown; for inhibition at 0.1 µM / inhibition at 0.03 µM: read-out: Percentage inhibition of ligand binding, Adrenergic α2A; for Percentage inhibition of ligand binding, Adrenergic α2A: 0.1 µM; for inhibition at 0.03 µM: compound at 0.03 μM
T3 construct: expressed in transfected cells; host or cells: insect Sf9 cells
T3 sequence (P08913 1-465): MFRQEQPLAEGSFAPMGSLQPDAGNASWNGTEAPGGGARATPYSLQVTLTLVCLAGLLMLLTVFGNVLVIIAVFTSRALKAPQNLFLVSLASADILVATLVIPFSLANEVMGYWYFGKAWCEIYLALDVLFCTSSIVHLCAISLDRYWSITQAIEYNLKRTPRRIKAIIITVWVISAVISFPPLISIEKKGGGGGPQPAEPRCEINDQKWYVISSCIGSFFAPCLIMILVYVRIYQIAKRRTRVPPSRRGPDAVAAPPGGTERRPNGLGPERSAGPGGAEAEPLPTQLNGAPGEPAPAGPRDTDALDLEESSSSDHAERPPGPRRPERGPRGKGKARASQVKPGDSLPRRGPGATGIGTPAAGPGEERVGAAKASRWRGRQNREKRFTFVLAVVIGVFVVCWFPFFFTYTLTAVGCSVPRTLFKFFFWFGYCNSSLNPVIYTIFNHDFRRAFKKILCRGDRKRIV
Procedure, shortened: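 In 50 mM Tris-HCl (pH 7.4) containing 12.5 mM MgCl2 and 2 mM EDTA, Sf9-expressed receptor was exposed to test compound plus 1 nM [3H]MK-912 at 25 °C for 60 min. Specific binding, corrected using 10 μM WB-4101, was quantified by filtration and counting and expressed as percent inhibition.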

| Percentage inhibition of ligand binding, Adrenergic α1B [1] | Percentage inhibition of ligand binding, Adrenergic α2B ([2]; compound at 0.03 μM, 0.03 µM) | Percentage inhibition of ligand binding, Adrenergic α2B ([2]; compound at 0.1 μM, 0.1 µM) | pKi [2] | pKi [3] | inhibition at 0.1 µM [3] | Percentage inhibition of ligand binding, Adrenergic α2A [3] | inhibition at 0.03 µM [1] | inhibition at 0.1 µM [1] | inhibition at 0.03 µM ([2]; compound at 0.03 μM) | inhibition at 0.03 µM [3] | SMILES |
| --- | --- | --- | --- | --- | --- | --- | --- | --- | --- | --- | --- |
| 6% and 16% | 30% and 36% | 48% | 7.36 | 5.43 |  |  |  |  |  |  | Cc1ccc2c(c1)c1c(n2CC(N)c2ccncc2)CCN(C)C1 (single isomer, unassigned) [27b, 2-(1,2,3,4-tetrahydro-2,8-dimethylpyrido[4,3-b]indol-5-yl)-1-(pyridin-4-yl)ethanamine] |
| 41% | 96% |  |  |  | 28% |  |  |  |  |  | CN1CCc2c(n(CC(C)(O)c3cccnc3)c3ccc(Cl)cc23)C1 (single isomer, unassigned) [28a] |
| 20% | 37% |  |  |  |  | 24% |  |  |  |  | CN1CCc2c(n(CC(C)(O)c3cccnc3)c3ccc(Cl)cc23)C1 (single isomer, unassigned) [28b] |
| 38% | 100% |  | 8.96 | 7.11 | 35% | 39% | 19% | 32% | 98% | 16% | Cc1ccc2c(c1)c1c(n2CC(C)(O)c2ccc(C)nc2)CCN(C)C1 (single isomer, unassigned) [29a] |
| 91% | 102% |  | 8.95 | 7.85 | 74% | 75% | 68% | 89% | 100% | 42% | Cc1ccc2c(c1)c1c(n2CC(O)c2ccc(F)cc2)CCN(C)C1 (single isomer, unassigned) [30b] |
| 28% | 97% |  | 8.80 | 6.78 | 19% | 27% | 16% | 25% | 93% | 11% | CN1CCc2c(c3cc(Cl)ccc3n2CC(C)(O)c2cccnc2)C1 (single isomer, unassigned) [31a] |
| 2% | −3% |  |  |  |  | 8% |  |  |  |  | OC(Cn1c2c(c3cccnc31)CN1CCCC1C2)c1ccncc1 (single isomer, unassigned) [37d] |
|  | 28% |  |  |  | 1% |  |  | 24% |  |  | Cc1ccc2c(c1)c1c(n2CC(O)c2ccncc2)CCNC1 (single isomer, unassigned) [39b, 2-(8-methyl-1,2,3,4-tetrahydro-pyrido[4,3-b]indol-5-yl)-1-pyridin-4-yl-ethanol] |
| 2% |  |  |  |  | 7% |  |  |  | 27% |  | CN1CCc2c(c3ccc(C(F)(F)F)cc3n2CC(O)c2cccnc2)C1 (single isomer, unassigned) [40a] |
| −2% | 29% |  |  |  |  | 13% |  |  |  |  | CN1CCc2c(c3ccc(C(F)(F)F)cc3n2CC(O)c2cccnc2)C1 (single isomer, unassigned) [40b] |
| 50% | 50% |  |  |  |  | 8% |  |  |  |  | CN1CCc2c(n(CC(O)c3ccncc3)c3ccc(Cl)cc23)C1 (single isomer, unassigned) [41b] |

More lines, now with the values behind:

| SMILES | Percentage inhibition of ligand binding, Adrenergic α1B [1] | Percentage inhibition of ligand binding, Adrenergic α2B ([2]; compound at 0.03 μM, 0.03 µM) | Percentage inhibition of ligand binding, Adrenergic α2B ([2]; compound at 0.1 μM, 0.1 µM) | pKi [2] | pKi [3] | inhibition at 0.1 µM [3] | Percentage inhibition of ligand binding, Adrenergic α2A [3] | inhibition at 0.03 µM [1] | inhibition at 0.1 µM [1] | inhibition at 0.03 µM ([2]; compound at 0.03 μM) | inhibition at 0.03 µM [3] |
| --- | --- | --- | --- | --- | --- | --- | --- | --- | --- | --- | --- |
| CCC1c2c(c3cc(C)ccc3n2CC(O)c2ccncc2)C2CCN1C2 (single isomer, unassigned) [36a] |  | 33% |  |  |  |  | 8% |  | 14% |  |  |
| CCC1c2c(c3cc(C)ccc3n2CC(O)c2ccncc2)C2CCN1C2 (single isomer, unassigned) [36b] | 11% | −1% |  |  |  |  | 0% |  |  |  |  |
| OC(Cn1c2c(c3cccnc31)CN1CCCC1C2)c1ccncc1 (single isomer, unassigned) [37a] | −5% | 2% |  |  |  |  | 18% |  |  |  |  |
| OC(Cn1c2c(c3cccnc31)CN1CCCC1C2)c1ccncc1 (single isomer, unassigned) [37b] | −10% | −3% |  |  |  |  | −20% |  |  |  |  |
| OC(Cn1c2c(c3cccnc31)CN1CCCC1C2)c1ccncc1 (single isomer, unassigned) [37c] | 2% | 0% |  |  |  |  | 6% |  |  |  |  |
| Cc1ccc2c(c1)c1c(n2CC(O)c2ccncc2)C(C)N2CCC1C2 (single isomer, unassigned) [38a] | 11% | 35% |  |  |  |  | 14% |  |  |  |  |
| Cc1ccc2c(c1)c1c(n2CC(O)c2ccncc2)C(C)N2CCC1C2 (single isomer, unassigned) [38b] | 20% | 17% |  |  |  |  | −1% |  |  |  |  |
| CC(O)(Cn1c2c(c3cc(Cl)ccc31)CNCC2)c1ccncn1 (single isomer, unassigned) [42a, 1-(8-chloro-1,2,3,4-tetrahydro-pyrido[4,3-b]indol-5-yl)-2-pyrimidin-4-yl-propan-2-ol] |  |  |  |  |  |  | 3% |  | 15% | 29% |  |
| CC(O)(Cn1c2c(c3cc(Cl)ccc31)CNCC2)c1ccncn1 (single isomer, unassigned) [42b, 1-(8-chloro-1,2,3,4-tetrahydro-pyrido[4,3-b]indol-5-yl)-2-pyrimidin-4-yl-propan-2-ol] | 19% | 34% |  |  |  |  | 12% |  |  |  |  |
